From ChEMBL document CHEMBL1201862, “PubChem BioAssay data set” (2004)
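Cultured in 96-well plates, cells were exposed to test compound for 48 hours across five concentrations. GI50: concentration for 50% inhibition of growth.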 The source made the active and inactive calls. Rule as the data show it: active = GI50 up to about 1.1 µM and inactive = higher.

Experiments:
Assay in all cases: growth of human tumour cells (NCI), 48 h
[1] = tested on: A498
[2] = tested on: A549
[3] = tested on: CCRF-CEM
[4] = tested on: EKVX
[5] = tested on: HL-60
[6] = tested on: Hs-578T
[7] = tested on: K562
[8] = tested on: MDA-MB-231
[9] = tested on: NCI-H460
[10] = tested on: OVCAR-3
[11] = tested on: OVCAR-8
[12] = tested on: RXF 393
[13] = tested on: SF-268
[14] = tested on: SF-295
[15] = tested on: SK-MEL-5
[16] = tested on: SK-OV-3
[17] = tested on: SNB-19
[18] = tested on: SR
[19] = tested on: SW-620
[20] = tested on: T47D

| SMILES | GI50 [1] | GI50 [2] | GI50 [3] | GI50 [4] | GI50 [5] | GI50 [6] | GI50 [7] | GI50 [8] | GI50 [9] | GI50 [10] | GI50 [11] | GI50 [12] | GI50 [13] | GI50 [14] | GI50 [15] | GI50 [16] | GI50 [17] | GI50 [18] | GI50 [19] | GI50 [20] |
| --- | --- | --- | --- | --- | --- | --- | --- | --- | --- | --- | --- | --- | --- | --- | --- | --- | --- | --- | --- | --- |
| c1cnc2c(c1)Nc1cnncc1S2 | > 100 µM (inactive) | > 100 µM (inactive) | > 100 µM (inactive) | > 100 µM (inactive) | > 100 µM (inactive) | > 100 µM (inactive) | > 100 µM (inactive) | > 100 µM (inactive) | > 100 µM (inactive) | > 100 µM (inactive) | > 100 µM (inactive) | > 100 µM (inactive) | > 100 µM (inactive) | > 100 µM (inactive) | > 100 µM (inactive) | > 100 µM (inactive) | > 100 µM (inactive) | 53.3 µM (inactive) | > 100 µM (inactive) | > 100 µM (inactive) |
| CCCCCCCSCC(O)COC(c1ccccc1)(c1ccccc1)c1ccccc1 (centres undefined) | > 100 µM (inactive) | 26.7 µM (inactive) | 29.7 µM (inactive) | 53 µM (inactive) | 26.9 µM (inactive) | 3.52 µM (inactive) | 54.6 µM (inactive) | > 100 µM (inactive) | 30.1 µM (inactive) | 29.2 µM (inactive) | 61.8 µM (inactive) |  | 20.3 µM (inactive) | 35.3 µM (inactive) | 23.6 µM (inactive) | > 100 µM (inactive) | 76.6 µM (inactive) | 22.1 µM (inactive) | 78 µM (inactive) | 32.7 µM (inactive) |
| CC(=O)O/C=C\OC1CCCC1 | > 100 µM (inactive) | > 100 µM (inactive) | 21.9 µM (inactive) | > 100 µM (inactive) | > 100 µM (inactive) | > 100 µM (inactive) | > 100 µM (inactive) | > 100 µM (inactive) | > 100 µM (inactive) | > 100 µM (inactive) | > 100 µM (inactive) | > 100 µM (inactive) | > 100 µM (inactive) | > 100 µM (inactive) | > 100 µM (inactive) | > 100 µM (inactive) | > 100 µM (inactive) | > 100 µM (inactive) | > 100 µM (inactive) | > 100 µM (inactive) |
| N/N=C(\C(=O)Nc1ccc(Cl)cc1Cl)C(c1cnc2ccccc2n1)[N+](=O)[O-] (centres undefined) | > 100 µM (inactive) | > 100 µM (inactive) | > 100 µM (inactive) | > 100 µM (inactive) | > 100 µM (inactive) | > 100 µM (inactive) | > 100 µM (inactive) | > 100 µM (inactive) | > 100 µM (inactive) | > 100 µM (inactive) | > 100 µM (inactive) | > 100 µM (inactive) | > 100 µM (inactive) | > 100 µM (inactive) | > 100 µM (inactive) | > 100 µM (inactive) |  | > 10 µM (inactive) | > 100 µM (inactive) | > 100 µM (inactive) |
| O=C(/C=C/c1cccs1)c1ccc(Cl)cc1 | 99.3 µM (inactive) | > 100 µM (inactive) | 29.9 µM (inactive) | > 100 µM (inactive) | 28.6 µM (inactive) | > 100 µM (inactive) | > 10 µM (inactive) | > 100 µM (inactive) | > 100 µM (inactive) |  | 90.4 µM (inactive) |  | 50.8 µM (inactive) | 99.3 µM (inactive) | 65.2 µM (inactive) | > 100 µM (inactive) | > 100 µM (inactive) | 28.1 µM (inactive) | 28.8 µM (inactive) | 56.1 µM (inactive) |
| CC(C)C(C/C=C1/CC(CO)(COC(=O)c2ccccc2)OC1=O)C(C)C (centres undefined) | 18.2 µM (inactive) | 12.4 µM (inactive) | 16.8 µM (inactive) | 19.2 µM (inactive) |  | 7.43 µM (inactive) | 9.04 µM (inactive) | 15.7 µM (inactive) | 17 µM (inactive) | 17.5 µM (inactive) | 22.4 µM (inactive) | 16.7 µM (inactive) | 16.8 µM (inactive) | 12.2 µM (inactive) | 8.45 µM (inactive) | 45.4 µM (inactive) | 16.7 µM (inactive) | 30.6 µM (inactive) | 16.4 µM (inactive) | 15.6 µM (inactive) |
| CC1=CC(=O)[C@@H](O)[C@]2(C)[C@H]3[C@@]4(O)OC[C@]35[C@H]([C@@H](C)[C@H]4O)[C@@H](O)C(=O)O[C@@H]5C[C@@H]12 | 0.448 µM (active) | 0.789 µM (active) | 0.261 µM (active) | 0.771 µM (active) |  | 0.195 µM (active) | 0.475 µM (active) | 0.252 µM (active) | 0.214 µM (active) | 0.247 µM (active) | 0.279 µM (active) | 0.391 µM (active) | 0.231 µM (active) | 0.339 µM (active) | 0.118 µM (active) | 0.607 µM (active) | 0.115 µM (active) | 77.6 µM (inactive) | 0.428 µM (active) | 0.225 µM (active) |
